Among the test systems are OVCAR-4 ovarian; UACC-62 melanoma; DU-145 prostate; U251 CNS; NCI-H522 lung; HCC-2998 colon; 786-0 renal; RXF 393 renal; SNB-19 CNS.
Assay in all cases: DTP human tumour cell line panel, 48 h

SMILES strings stand for the structures.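 Values below derive from 48-hour exposures of cells grown in 96-well plates, with endpoints linearly interpolated between the two concentrations bracketing the appropriate inhibition level. Definition used: TGI = concentration required for complete inhibition of growth.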 Some results are limits rather than exact numbers.

The TGI is the concentration at which net growth stops. For `O=c1c(Cc2ccc(Cl)cc2)nnc2sc(-c3ccc(-c4ccc(F)c(Cl)c4)o3)nn12`, the TGI in the test on OVCAR-4 ovarian, in the test on UACC-62 melanoma, in the test with DU-145 prostate, with U251 CNS, in the test on NCI-H522 lung and with HCC-2998 colon was greater than 100 µM throughout. In addition, the TGI with 786-0 renal, in the test with RXF 393 renal and with SNB-19 CNS was greater than 100 µM in each case.
Regarding `N#CC1(O)CCCCCCCCCCC1`, the TGI in the test with OVCAR-4 ovarian, in the test with UACC-62 melanoma, in the test with DU-145 prostate, with U251 CNS, in the test with NCI-H522 lung and in the test with HCC-2998 colon was greater than 100 µM each time. The TGI in the test with 786-0 renal, with RXF 393 renal and in the test on SNB-19 CNS was greater than 100 µM in each case.
As to `CCC(CO)Nc1nc(NCc2ccccc2)c2ncn(C(C)C)c2n1` (stereo unspecified), the TGI in the test on OVCAR-4 ovarian is greater than 58.1 µM; with UACC-62 melanoma, 47 µM; in the test with DU-145 prostate, greater than 100 µM; with U251 CNS, greater than 100 µM; with NCI-H522 lung, 55.4 µM; with HCC-2998 colon, 34.7 µM. Further, the TGI with 786-0 renal is greater than 80.7 µM; with RXF 393 renal, 20.9 µM; in the test with SNB-19 CNS, greater than 100 µM.
For `CCCCSc1nsc(N(C(=O)c2ccccc2)C(=O)c2ccccc2)n1`, the TGI in the test on OVCAR-4 ovarian is greater than 100 µM; in the test with UACC-62 melanoma, 60.1 µM; with DU-145 prostate, greater than 100 µM; in the test on U251 CNS it was greater than 100 µM; with NCI-H522 lung, 69.5 µM; in the test on HCC-2998 colon, 74.4 µM. For the same compound, the TGI with 786-0 renal, with RXF 393 renal and in the test on SNB-19 CNS was greater than 100 µM in each case.
Consider `C=C1C(OC2O[C@@H]3O[C@@]4(C)CC[C@H]5[C@H](C)CC[C@@H](C2=C)[C@@]35O4)O[C@@H]2O[C@@]3(C)CC[C@H]4[C@H](C)CC[C@@H]1[C@@]24O3` (stereo partly specified), for which the TGI in the test with OVCAR-4 ovarian, in the test with UACC-62 melanoma, in the test with DU-145 prostate, with U251 CNS, in the test with NCI-H522 lung and in the test on HCC-2998 colon was greater than 50 µM throughout. Further, the TGI with 786-0 renal, in the test with RXF 393 renal and with SNB-19 CNS was greater than 50 µM each time.
For the compound `COC(=O)Cc1ccc2c(cnn2-c2ccccc2)c1OC`, the TGI in the test with OVCAR-4 ovarian, with UACC-62 melanoma, with DU-145 prostate, with U251 CNS, with NCI-H522 lung and in the test on HCC-2998 colon was greater than 10 µM throughout. For the same compound, the TGI in the test with 786-0 renal, in the test with RXF 393 renal and with SNB-19 CNS was greater than 10 µM in each case.
Consider `Cc1cc(S(=O)(=O)Nc2n[nH]c(-c3ccccn3)n2)c(S)cc1Cl`, for which the TGI was 65.5 µM in the test on OVCAR-4 ovarian; 34.8 µM with UACC-62 melanoma; 96 µM in the test on DU-145 prostate; 67.3 µM in the test with U251 CNS; 72.4 µM with NCI-H522 lung; 30.2 µM in the test with HCC-2998 colon. The TGI with 786-0 renal amounted to 72.7 µM; with RXF 393 renal, 34.1 µM; in the test on SNB-19 CNS it was 60.6 µM.
With `O=c1nc2c(c(-c3ccc(Br)cc3)[nH]1)COC/C2=C\c1ccc(Br)cc1`, the TGI with OVCAR-4 ovarian, in the test on UACC-62 melanoma, in the test with DU-145 prostate, with U251 CNS, in the test with NCI-H522 lung and in the test with HCC-2998 colon was greater than 50 µM in each case. Also, the TGI in the test with 786-0 renal, in the test with RXF 393 renal and in the test with SNB-19 CNS was greater than 50 µM in each case.
For the compound `Cc1cc2c(O)c(c1)CN(CC(=O)O)Cc1cc(C)cc(c1O)CN(CC(=O)O)Cc1cc(C)cc(c1O)CN(CC(=O)O)C2`, the TGI in the test on OVCAR-4 ovarian, in the test on UACC-62 melanoma, with DU-145 prostate, in the test with U251 CNS, in the test with NCI-H522 lung and with HCC-2998 colon was greater than 100 µM throughout. Besides, the TGI in the test on 786-0 renal, in the test with RXF 393 renal and with SNB-19 CNS was greater than 100 µM in each case.
For `O=C(O)c1cccc2cccc(-c3cccc4cccc(C(=O)O)c34)c12`, the TGI in the test with OVCAR-4 ovarian, with UACC-62 melanoma, in the test with DU-145 prostate, in the test on U251 CNS, in the test with NCI-H522 lung and in the test on HCC-2998 colon was greater than 100 µM in each case. Besides, the TGI with 786-0 renal, in the test with RXF 393 renal and in the test on SNB-19 CNS was greater than 100 µM in each case.
With `C=C1OC(c2ccccc2NC)=NC12CCCCC2`, the TGI in the test on OVCAR-4 ovarian, in the test on UACC-62 melanoma, in the test with DU-145 prostate, in the test on U251 CNS, in the test on NCI-H522 lung and in the test on HCC-2998 colon was greater than 100 µM in each case. Also, the TGI in the test with 786-0 renal, in the test with RXF 393 renal and in the test on SNB-19 CNS was greater than 100 µM in each case.
As for `OCCOCn1nncc1Cn1ncc2c(SCc3ccccc3)ncnc21`, the TGI in the test on OVCAR-4 ovarian, in the test on UACC-62 melanoma, with DU-145 prostate, in the test on U251 CNS, in the test with NCI-H522 lung and in the test on HCC-2998 colon was greater than 100 µM throughout. Besides, the TGI in the test with 786-0 renal, in the test with RXF 393 renal and in the test on SNB-19 CNS was greater than 100 µM throughout.
Consider `Cc1[nH]c(=O)nc(NCCNCCO)c1C(=O)Nc1cccc2cc3ccccc3cc12`, for which the TGI in the test on OVCAR-4 ovarian, in the test with UACC-62 melanoma, in the test on DU-145 prostate, with U251 CNS, in the test on NCI-H522 lung and in the test with HCC-2998 colon was greater than 100 µM each time. The TGI in the test on 786-0 renal, in the test with RXF 393 renal and in the test on SNB-19 CNS was greater than 100 µM throughout.
On to `O=c1[nH]c2nc3ccccc3nc2[nH]c1=O`, for which the TGI in the test on OVCAR-4 ovarian, with UACC-62 melanoma, with DU-145 prostate, in the test with U251 CNS, in the test with NCI-H522 lung and in the test with HCC-2998 colon was greater than 100 µM throughout. Moreover, the TGI with 786-0 renal, in the test on RXF 393 renal and in the test with SNB-19 CNS was greater than 100 µM in each case.

These data come from PubChem BioAssay (NCI).
